From patent publication US20210315840A1, “SOLID ORAL DOSAGE FORMS OF KETAMINE DERIVATIVES” (priority 2017, published 2021)

Tests used:
[1] = pKa by potentiometric (pH-metric) titration; assay type: physicochemical; conditions: methanol-water co-solvent, Yasuda-Shedlovsky extrapolation
Protocol: The sample pKa was determined using the potentiometric (pH-metric) technique following attempts to determine pKa via UV spectroscopic techniques.
UV-metric: The sample was initially titrated in a fast-UV triple titration between pH 2.0-12.0 at concentrations of 31-19 μM, under aqueous conditions. No evidence of any sample ionisation within the investigated pH range was inferred from the spectroscopic data obtained, meaning that any ionisable groups were remote from chromophores. Therefore, the sample was analysed using the pH-metric method.
pH-metric: The sample was subsequently titrated using the potentiometric technique to determine the non-UV active pKas. A triple titration was carried out under methanol-water co-solvent conditions from pH 2.0-12.0 at concentrations of 0.9-0.6 mM (the methanol mixing ratio varied from 53.0 to 33.3% w/w).

[2] = target: 5-HT2B (Homo sapiens, UniProt P41595); assay: Binding assay 5-HT2B
5-HT2B, sequence (P41595 whole entry, species assumed): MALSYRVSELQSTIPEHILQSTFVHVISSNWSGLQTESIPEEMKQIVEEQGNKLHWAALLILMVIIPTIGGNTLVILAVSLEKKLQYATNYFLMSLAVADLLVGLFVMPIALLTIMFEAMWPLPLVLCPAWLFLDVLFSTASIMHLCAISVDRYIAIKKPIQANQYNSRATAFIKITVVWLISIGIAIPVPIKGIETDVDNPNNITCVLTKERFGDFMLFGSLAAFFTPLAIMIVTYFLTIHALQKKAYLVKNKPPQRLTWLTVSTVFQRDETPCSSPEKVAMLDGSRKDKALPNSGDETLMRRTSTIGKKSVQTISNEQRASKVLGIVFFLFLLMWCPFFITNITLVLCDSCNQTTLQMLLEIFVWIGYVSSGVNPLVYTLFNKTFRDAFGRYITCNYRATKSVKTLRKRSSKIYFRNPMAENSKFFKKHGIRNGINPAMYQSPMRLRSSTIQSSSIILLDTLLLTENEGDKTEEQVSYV
Text: (§1) 2R,6R-hydroxynorketamine was investigated for binding to monoamine oxidases A and B, monoamine transporters, as well as a variety of 5HT receptors.

[3] = target: norepinephrine transporter (Homo sapiens, UniProt P23975); assay: Binding assay norepinephrine transporter
norepinephrine transporter, sequence (P23975 whole entry, species assumed): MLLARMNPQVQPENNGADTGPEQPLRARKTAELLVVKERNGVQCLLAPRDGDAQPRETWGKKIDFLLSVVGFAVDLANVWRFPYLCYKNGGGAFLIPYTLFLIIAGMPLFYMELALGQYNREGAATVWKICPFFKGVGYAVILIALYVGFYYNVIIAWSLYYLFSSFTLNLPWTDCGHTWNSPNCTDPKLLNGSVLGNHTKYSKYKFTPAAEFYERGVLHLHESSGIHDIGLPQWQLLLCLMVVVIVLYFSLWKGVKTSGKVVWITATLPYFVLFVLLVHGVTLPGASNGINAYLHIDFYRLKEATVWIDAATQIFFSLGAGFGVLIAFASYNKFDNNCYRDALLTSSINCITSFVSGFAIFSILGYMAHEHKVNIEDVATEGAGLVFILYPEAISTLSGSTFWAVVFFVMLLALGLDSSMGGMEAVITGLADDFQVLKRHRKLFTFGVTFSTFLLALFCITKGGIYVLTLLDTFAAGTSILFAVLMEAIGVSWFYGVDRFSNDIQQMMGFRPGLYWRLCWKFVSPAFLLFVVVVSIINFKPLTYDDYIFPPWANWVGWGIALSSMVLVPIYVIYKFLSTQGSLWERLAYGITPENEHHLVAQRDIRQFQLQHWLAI
Text: as §1

[4] = target: MAO-A (Homo sapiens, UniProt P21397); assay: Binding assay MAO-A
MAO-A, sequence (P21397 whole entry, species assumed): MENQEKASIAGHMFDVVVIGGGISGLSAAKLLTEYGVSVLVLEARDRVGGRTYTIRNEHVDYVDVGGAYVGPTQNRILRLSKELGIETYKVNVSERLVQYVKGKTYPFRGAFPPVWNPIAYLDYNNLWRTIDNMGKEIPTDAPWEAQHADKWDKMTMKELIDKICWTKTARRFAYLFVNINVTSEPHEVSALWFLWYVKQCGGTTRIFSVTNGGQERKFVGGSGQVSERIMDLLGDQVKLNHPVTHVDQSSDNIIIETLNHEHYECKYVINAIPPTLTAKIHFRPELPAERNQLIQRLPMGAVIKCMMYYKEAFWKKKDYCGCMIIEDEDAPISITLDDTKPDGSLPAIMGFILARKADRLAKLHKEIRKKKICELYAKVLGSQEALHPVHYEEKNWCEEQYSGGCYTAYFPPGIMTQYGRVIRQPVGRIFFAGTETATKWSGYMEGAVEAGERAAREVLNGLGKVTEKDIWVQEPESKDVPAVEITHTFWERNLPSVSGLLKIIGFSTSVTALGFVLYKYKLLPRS
Text: as §1

[5] = target: CYP2D6 (Homo sapiens, UniProt P10635); assay: CYP inhibition assay CYP2D6; assay type: in vitro ADME
CYP2D6, sequence (P10635 whole entry): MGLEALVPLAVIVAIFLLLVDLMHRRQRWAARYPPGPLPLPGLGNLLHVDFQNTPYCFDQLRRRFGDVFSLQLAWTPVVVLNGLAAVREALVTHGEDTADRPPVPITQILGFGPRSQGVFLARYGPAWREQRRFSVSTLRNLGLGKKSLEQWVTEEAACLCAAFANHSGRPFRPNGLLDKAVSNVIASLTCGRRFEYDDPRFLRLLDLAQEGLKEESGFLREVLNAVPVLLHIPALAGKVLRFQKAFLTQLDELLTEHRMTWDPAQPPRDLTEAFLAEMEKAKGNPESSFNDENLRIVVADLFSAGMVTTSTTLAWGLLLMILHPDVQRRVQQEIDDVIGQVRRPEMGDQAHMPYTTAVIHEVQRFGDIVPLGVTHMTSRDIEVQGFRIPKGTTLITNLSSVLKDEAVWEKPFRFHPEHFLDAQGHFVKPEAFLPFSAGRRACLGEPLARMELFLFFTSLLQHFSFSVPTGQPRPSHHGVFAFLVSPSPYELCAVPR
Text: (§2) Cytochrome P450s (CYPs) are a family of enzymes that play a primary role in the metabolism of a wide variety of drugs. 2R,6R-hydroxynorketamine was investigated for its potential to inhibit the action of 7 key CYP enzymes using an inhibition assay measuring reduction in the formation of metabolites compared to control.

[6] = target: T1, CYP2C8 (Homo sapiens, UniProt P10632); assay: CYP inhibition assay CYP2C8; assay type: in vitro ADME
T1 sequence (P10632 1-490): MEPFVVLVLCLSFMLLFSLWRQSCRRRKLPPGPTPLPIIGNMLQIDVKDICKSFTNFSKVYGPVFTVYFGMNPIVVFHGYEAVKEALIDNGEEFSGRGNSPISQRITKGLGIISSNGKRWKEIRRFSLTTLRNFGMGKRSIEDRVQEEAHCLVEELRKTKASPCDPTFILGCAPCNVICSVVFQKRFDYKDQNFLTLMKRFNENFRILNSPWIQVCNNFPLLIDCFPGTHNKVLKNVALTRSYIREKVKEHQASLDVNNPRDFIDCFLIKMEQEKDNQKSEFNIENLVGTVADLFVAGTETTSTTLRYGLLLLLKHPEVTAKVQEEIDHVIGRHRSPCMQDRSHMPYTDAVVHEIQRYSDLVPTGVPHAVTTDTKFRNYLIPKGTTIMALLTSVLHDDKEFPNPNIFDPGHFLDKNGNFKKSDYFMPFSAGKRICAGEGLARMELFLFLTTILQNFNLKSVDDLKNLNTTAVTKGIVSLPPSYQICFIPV
Text: as §2

[7] = target: T2, CYP2B6 (Homo sapiens, UniProt P20813); assay: CYP inhibition assay CYP2B6; assay type: in vitro ADME
T2 sequence (P20813 1-491): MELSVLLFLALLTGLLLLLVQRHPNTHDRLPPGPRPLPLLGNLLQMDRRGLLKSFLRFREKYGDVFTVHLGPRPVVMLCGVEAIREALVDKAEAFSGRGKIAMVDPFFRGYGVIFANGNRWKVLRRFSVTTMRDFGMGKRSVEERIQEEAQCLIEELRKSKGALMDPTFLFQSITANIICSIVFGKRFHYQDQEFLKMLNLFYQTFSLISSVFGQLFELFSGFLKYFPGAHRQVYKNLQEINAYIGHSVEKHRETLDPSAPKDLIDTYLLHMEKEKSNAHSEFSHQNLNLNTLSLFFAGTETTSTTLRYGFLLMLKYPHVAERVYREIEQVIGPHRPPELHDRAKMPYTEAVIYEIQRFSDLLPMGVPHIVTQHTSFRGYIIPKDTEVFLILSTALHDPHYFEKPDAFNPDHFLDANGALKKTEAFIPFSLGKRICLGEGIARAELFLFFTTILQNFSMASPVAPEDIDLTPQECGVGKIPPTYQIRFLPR
Text: as §2

[8] = target: CYP3A4 (Homo sapiens, UniProt P08684); assay: CYP inhibition assay CYP3A4, substrate testosterone; assay type: in vitro ADME; conditions: for % Inhibition: Substrate = testosterone
CYP3A4, sequence (P08684 whole entry): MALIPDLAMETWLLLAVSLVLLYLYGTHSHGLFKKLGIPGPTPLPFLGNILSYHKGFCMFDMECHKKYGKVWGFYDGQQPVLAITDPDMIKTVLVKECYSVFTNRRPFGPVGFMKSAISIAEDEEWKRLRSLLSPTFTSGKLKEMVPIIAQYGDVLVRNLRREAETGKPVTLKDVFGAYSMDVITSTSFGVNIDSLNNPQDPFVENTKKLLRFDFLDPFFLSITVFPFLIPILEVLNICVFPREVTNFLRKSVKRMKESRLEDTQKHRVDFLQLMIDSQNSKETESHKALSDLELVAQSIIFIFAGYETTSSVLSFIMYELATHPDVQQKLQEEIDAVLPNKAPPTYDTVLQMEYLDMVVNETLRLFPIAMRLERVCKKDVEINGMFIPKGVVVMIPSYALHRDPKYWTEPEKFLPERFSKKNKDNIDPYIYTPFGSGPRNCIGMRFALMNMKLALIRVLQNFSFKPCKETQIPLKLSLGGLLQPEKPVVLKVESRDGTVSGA
Text: as §2

[9] = target: UGT1A1 (Homo sapiens, UniProt P22309); assay: UGT inhibition assay UGT1A1; assay type: in vitro ADME
UGT1A1, sequence (P22309 26-533): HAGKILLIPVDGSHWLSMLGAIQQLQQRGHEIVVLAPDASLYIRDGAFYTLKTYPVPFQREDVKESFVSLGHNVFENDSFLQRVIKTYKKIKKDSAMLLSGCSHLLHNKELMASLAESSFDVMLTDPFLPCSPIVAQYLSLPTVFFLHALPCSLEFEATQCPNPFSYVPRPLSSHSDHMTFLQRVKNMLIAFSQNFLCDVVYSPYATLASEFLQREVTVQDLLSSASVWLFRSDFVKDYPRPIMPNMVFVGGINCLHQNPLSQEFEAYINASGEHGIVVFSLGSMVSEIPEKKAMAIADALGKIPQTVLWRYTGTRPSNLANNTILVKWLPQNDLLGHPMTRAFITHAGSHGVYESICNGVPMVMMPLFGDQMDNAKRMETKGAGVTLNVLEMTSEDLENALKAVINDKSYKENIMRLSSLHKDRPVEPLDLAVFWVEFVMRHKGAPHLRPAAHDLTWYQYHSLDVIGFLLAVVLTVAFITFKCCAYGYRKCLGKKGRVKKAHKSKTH
Text: 2R,6R-hydroxynorketamine was therefore investigated for its potential to inhibit this isozyme, along with that of the major UGT isozyme, UGT1A1, using a UGT inhibition assay.

[10] = target: UGT2B7 (Homo sapiens, UniProt P16662); assay: UGT inhibition assay UGT2B7; assay type: in vitro ADME
UGT2B7, sequence (P16662 24-529): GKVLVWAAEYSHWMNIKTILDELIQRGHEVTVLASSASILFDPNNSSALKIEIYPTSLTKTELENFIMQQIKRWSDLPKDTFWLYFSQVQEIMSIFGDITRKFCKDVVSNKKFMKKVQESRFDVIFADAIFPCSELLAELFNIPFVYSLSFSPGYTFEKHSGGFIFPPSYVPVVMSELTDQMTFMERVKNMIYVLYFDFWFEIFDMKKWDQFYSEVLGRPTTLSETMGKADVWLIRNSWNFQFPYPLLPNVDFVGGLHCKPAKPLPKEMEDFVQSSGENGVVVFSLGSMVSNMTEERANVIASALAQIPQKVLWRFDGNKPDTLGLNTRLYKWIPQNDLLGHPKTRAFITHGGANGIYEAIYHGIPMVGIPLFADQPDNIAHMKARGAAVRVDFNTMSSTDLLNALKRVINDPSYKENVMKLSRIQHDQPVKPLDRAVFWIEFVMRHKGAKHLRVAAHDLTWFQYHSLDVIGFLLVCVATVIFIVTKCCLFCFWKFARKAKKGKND

[11] = Turbidimetric aqueous solubility; assay type: physicochemical
[12] = system: α-amino-3-hydroxy-5-methyl-4-isoxazolepropionic acid receptor (AMPAR)-mediated currents; assay: In vitro electrophysiology, field excitatory postsynaptic potentials; conditions: estimated
Protocol: The free (unbound) concentration of 2R,6R-hydroxynorketamine producing pharmacodynamics activity in the brain is estimated to be approximately 10 μM.

[13] = Oral bioavailability in vivo after oral gavage; conditions: mice
[14] = DSC compatibility with excipients and capsule shells

## N[C@@]1(c2ccccc2Cl)CCC[C@@H](O)C1=O [2R,6R-hydroxynorketamine, 2R,6R-2-(2-Chlorophenyl)-2-(amino)-6-hydroxycyclohexanone]
[1]
  pKa: 6.51+/−0.02
[2]
  % Inhibition of Control Specific Binding: 5%
  % of Control Specific Binding: 100.9%
  binding to 5HT2B receptor subtype (in words): does not bind
[3]
  % Inhibition of Control Specific Binding: −16%
  % of Control Specific Binding: 117.6%
[4]
  % Inhibition of Control Specific Binding: −5%
  % of Control Specific Binding: 97.7%
[5]
  inhibition of CYP2D6 (in words): did not inhibit
[5]; 0.4 μM
  % Inhibition: 3.16%
[5]; 1 μM
  % Inhibition: 6.65%
[5]; 4 μM
  % Inhibition: 11.5%
[5]; 10 μM
  % Inhibition: 9.41%
[5]; 40 μM
  % Inhibition: 11.2%
[5]; 100 μM
  % Inhibition: 5.73%
[6]
  inhibition of CYP2C8 (in words): did not inhibit
[6]; 0.4 μM
  % Inhibition: 5.63%
[6]; 1 μM
  % Inhibition: 4.91%
[6]; 4 μM
  % Inhibition: 12.5%
[6]; 10 μM
  % Inhibition: 8.33%
[6]; 40 μM
  % Inhibition: 8.35%
[6]; 100 μM
  % Inhibition: 2.08%
[7]
  inhibition of CYP2B6 (in words): did not inhibit
[7]; 0.4 μM
  % Inhibition: 6.03%
[7]; 1 μM
  % Inhibition: 10.1%
[7]; 4 μM
  % Inhibition: 10.6%
[7]; 10 μM
  % Inhibition: 14.4%
[7]; 40 μM
  % Inhibition: 14.8%
[7]; 100 μM
  % Inhibition: 16.7%
[8]; 0.4 μM
  % Inhibition: 1.62%
[8]; 1 μM
  % Inhibition: −0.509%
[8]; 4 μM
  % Inhibition: 7.04%
[8]; 10 μM
  % Inhibition: 12.4%
[8]; 40 μM
  % Inhibition: 35.2%
[8]; 100 μM
  % Inhibition: 53.4%
[8]; substrate testosterone
  IC50: 81 µM
[9]
  inhibition of UGT1A1 (in words): does not inhibit
[10]
  inhibition of UGT2B7 (in words): does not inhibit
[11]
  solubility (in words): high
[12]
  free (unbound) concentration producing pharmacodynamics activity in the brain, sufficient to increase fEPSPs: approximately 10 μM
[13]; high oral dose (>30 mg/kg)
  oral bioavailability: good
[13]; low oral dose
  oral bioavailability: poor
[14]
  compatibility with dicalcium phosphate and microcrystalline cellulose: compatibility
[14]; binary mix 1:2 API:Excipient
  compatibility with lactose monohydrate (DSC): incompatible
